The target of test [1] is T1, CaM (Bos taurus, UniProt P62157).
T1 construct: made in house; host or cells: E. coli BL21 (DE3)
Nature of the test: Pull-down assay with immobilized protein and LSM libraries. To be noted: H14 library; 1:2 stoichiometry assumed; read-out: Surface mapping KD (apparent). Format: binding, bovine. The procedure, abridged: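 His-tagged protein immobilized on Co-NTA resin, equilibrated 30 min at room temperature with LSM sublibraries (64 members, […]), equimolar protein to total probe. CaM buffer: 20 mM HEPES pH 7.4, 150 mM NaCl, 5 mM CaCl2. Bound fractions from HPLC-MS loss of unbound probe versus protein-free resin control; Kd derived.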

Test [2] has as its target T2, Gal-1 (Homo sapiens, UniProt P09382).
T2 construct: made in house; host or cells: E. coli BL21(DE3)
The description is as above. Format: binding. Particulars: H14 library; 1:1 binding assumed; read-out: Surface mapping KD (apparent). The procedure, abridged:
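His-tagged protein immobilized on Co-NTA resin (64 µM) in 20 mM HEPES pH 7.4, 150 mM NaCl, equilibrated 30 min at room temperature with foldamer LSM sublibraries at equimolar total concentration. Unbound fractions quantified by HPLC-MS versus protein-free resin control; apparent KD assumes 1:1 binding.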

In the next test the target is T3, S100B (Homo sapiens, UniProt P04271).
T3 construct: made in house; host or cells: Escherichia coli BL21(DE3)
T3 sequence (P04271 1-92): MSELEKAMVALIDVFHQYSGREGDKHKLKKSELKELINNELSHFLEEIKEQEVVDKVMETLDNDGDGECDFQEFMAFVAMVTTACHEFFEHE
The test is described as above. Format: binding. To be noted: H14 library; 1:1 binding assumed; read-out: Surface mapping KD (apparent). The procedure, abridged: (§1)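 Buffers were HEPES pH 7.4 with 150 mM NaCl, plus 1 mM TCEP and 1 mM CaCl2 (50 mM HEPES) for S100A4 and S100B, 1 mM TCEP for Gal-1, and no additive for RecQ-WH. Immobilized protein at 64 µM was equilibrated 30 min with the LSM sublibrary, and unbound probes were measured by LC-MS.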

Another test has as its target T4, S100A4 (Homo sapiens, UniProt P26447).
T4 construct: made in house; host or cells: Escherichia coli BL21(DE3)
Described as above. Format: binding. To be noted: H14 library; 1:1 binding assumed; read-out: Surface mapping KD (apparent). The procedure, abridged:
as §1

Test [3] concerns the target T2, Gal-1. Description: Competition pull-down with lactose. Particulars: H14 library; lactose 10 mM; read-out: Surface mapping KD (apparent), competition. Format: binding. Here is the method:
Interactions between the H14 helical LSMs and the targets were abundant, but safe recognition of the native PPI interfaces on the targets is a criterion of druggability. To gain insight into the ability of the LSMs to detect orthosteric spots, we carried out pull-down assays in the presence of the native ligands (Table 2) of the targets (Fig. 5). For highlighting the effect of the competitor on the binding fingerprints, KD ratios and the LSM replacement percentages were calculated and are represented as heat maps (see ESI, Fig. S7 ^†). […] This could be explained by the glycan selective native recognition domain of the protein. We note that the replacement pattern for a single probe can, in theory, be complex. […] Moreover, a single probe can bind to both orthosteric and non-orthosteric spots, which limits overall displacement levels. To avoid overlooking interesting orthosteric weak binders, direct replacement levels were assessed (see ESI, Fig. S7 ^†).
Pull-down assay and data analysis
Pull-down assay. LSM sublibraries were screened separately as previously described.(2) Experiments were performed in the following buffers: (i) 20 mM pH 7.4 HEPES, 150 mM NaCl, 5 mM CaCl2 for CaM; (ii) 50 mM pH 7.4 HEPES, 150 mM NaCl, 1 mM TCEP, 1 mM CaCl2 for S100 proteins; (iii) 20 mM pH 7.4 HEPES, 150 mM NaCl, 1 mM TCEP for Gal-1 and (iv) 20 mM pH 7.4 HEPES, 150 mM NaCl for RecQ-WH. Assays were performed in paper filter spin cups (Thermo Scientific) with sample volumes of 100 µl. Hexahistidine-tagged proteins were immobilized on previously washed Co-NTA resin (TALON, Takara Bio USA, Inc., Mountain View, CA) in 64 µM final concentration. LSM sublibrary was added, in which each of the 64 library members were used at a concentration of 1 µM. Samples were incubated at room temperature for 30 min with shaking at 100 rpm. Then, samples were centrifuged at 1000 rpm for 2 min and washed with 100 µl pull-down buffer to remove unbound compounds.
The control experiments were performed using the same compounds and the resin but without the immobilized protein. In case of competitive assays, competitor peptides were added to LSM sublibrary samples in 200 µM final concentration. In the case of Gal-1, lactose (competitor) was used in a concentration of 10 mM. Experiments were performed at least twice. Mean […]
LC-MS methods and parameters. HPLC/ESI-MS analysis was used to characterize the samples from the pull-down assay. LC-MS analysis was performed with a Thermo Scientific Dionex UltiMate 3000 HPLC system interfaced to an LTQ ion trap mass spectrometer (Thermo Electron Corp., San Jose, CA, USA). Samples were injected onto an Aeris Widepore XB-C18 (250 x 4.6 mm) analytical HPLC column using gradient elution 5-80 % solution B during 25 minutes. For pull-down samples, eluent composition was 0.1% acetic acid in distilled water (Solution A) and 0.1% acetic acid in acetonitrile (solution B). Mass spectra were acquired in full scan mode from 200 to 2000 m/z range. For overlapping peaks, selective reaction monitoring (SRM) was […]
MS data analysis. Thermo Xcalibur 2.2 software was used for peak identification and integration. The majority of the foldameric fragments could be resolved independently via HPLC-MS/MS measurements based on molecular weight, MS fragmentation pattern and retention time. Peaks of some foldamers with β3-hIle or β3-hLeu in position R2 could not be resolved, these were integrated and averaged. In the processing method, each sample component was associated to a chromatographic peak based on previously identified mass (m/z) and retention time (ref (2) and Table S7-10). Using ICIS peak detection algorithm, the general detection and integration criteria were: smoothing points: 5, baseline window: 80, area noise factor: 5, peak noise factor: 10. Using these processing setups, all raw data files were reprocessed together and analyzed. Errors in peak identification during the automatic processing were corrected manually.
Calculation of the discussed parameters […]

Test [4] addresses T1, CaM. Nature of the test: Competition pull-down with native ligand TRPV1-Ct15. To be noted: H14 library; competitor peptide 200 µM; read-out: Surface mapping KD (apparent), competition. The format is binding, bovine.

T2 sequence (P09382 whole entry): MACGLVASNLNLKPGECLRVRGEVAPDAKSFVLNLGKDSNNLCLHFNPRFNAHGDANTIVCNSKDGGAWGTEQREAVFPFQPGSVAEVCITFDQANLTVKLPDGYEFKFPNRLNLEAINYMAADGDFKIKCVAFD
T4 sequence (P26447 whole entry): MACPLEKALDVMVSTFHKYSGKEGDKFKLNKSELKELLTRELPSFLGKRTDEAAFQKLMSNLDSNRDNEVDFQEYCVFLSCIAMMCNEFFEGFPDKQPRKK

With `CSCC[C@@H](CC(=O)N[C@H]1CCCC[C@@H]1C(=O)N[C@H]1CCCC[C@@H]1C(=O)N[C@@H](CCCCN)CC(=O)N[C@H]1CCCC[C@@H]1C(N)=O)NC(=O)[C@H]1CCCC[C@@H]1N` [H14 MK], the Kd on CaM [1] was found to be 33 µM; on Gal-1 [2] it was 133 µM; at S100B, 125 µM; at S100A4, 339 µM; at Gal-1 [3], 149 µM.

On to `NCCCC[C@@H](CC(=O)N[C@H]1CCCC[C@@H]1C(N)=O)NC(=O)[C@H]1CCCC[C@@H]1NC(=O)[C@H]1CCCC[C@@H]1NC(=O)C[C@H](CCCCN)NC(=O)[C@H]1CCCC[C@@H]1N` [H14 KK], for which the Kd at CaM [1] came to 49 µM; at S100B, 53 µM; on Gal-1 [3], 298 µM.

On to `C[C@@H](CC(=O)N[C@H]1CCCC[C@@H]1C(N)=O)NC(=O)[C@H]1CCCC[C@@H]1NC(=O)[C@H]1CCCC[C@@H]1NC(=O)C[C@H](CC(N)=O)NC(=O)[C@H]1CCCC[C@@H]1N` [H14 NA], for which the results for the Kd on CaM [1] and on CaM [4] were 185 µM and 399 µM, respectively.

As to `C[C@@H](CC(=O)N[C@H]1CCCC[C@@H]1C(N)=O)NC(=O)[C@H]1CCCC[C@@H]1NC(=O)[C@H]1CCCC[C@@H]1NC(=O)C[C@H](CCCCN)NC(=O)[C@H]1CCCC[C@@H]1N` [H14 KA], the figures for the Kd at CaM [1], on S100B and at Gal-1 [3] were 318 µM, 319 µM and 465 µM, respectively. As for `CC(C)[C@@H](CC(=O)N[C@H]1CCCC[C@@H]1C(N)=O)NC(=O)[C@H]1CCCC[C@@H]1NC(=O)[C@H]1CCCC[C@@H]1NC(=O)C[C@H](CC(=O)O)NC(=O)[C@H]1CCCC[C@@H]1N` [H14 DV], the Kd on Gal-1 [3] turned out to be 316 µM. Take `NCCCC[C@@H](CC(=O)N[C@H]1CCCC[C@@H]1C(=O)N[C@H]1CCCC[C@@H]1C(=O)N[C@@H](CC(N)=O)CC(=O)N[C@H]1CCCC[C@@H]1C(N)=O)NC(=O)[C@H]1CCCC[C@@H]1N` [H14 KN]: the Kd at CaM [1] came out at 455 µM; at S100B it was 195 µM; on Gal-1 [3] it was 278 µM. On to `NC(=O)C[C@@H](CC(=O)N[C@H]1CCCC[C@@H]1C(=O)N[C@H]1CCCC[C@@H]1C(=O)N[C@@H](CCC(=O)O)CC(=O)N[C@H]1CCCC[C@@H]1C(N)=O)NC(=O)[C@H]1CCCC[C@@H]1N` [H14 NE], for which the Kd at CaM [1] came out at 254 µM; at CaM [4], 414 µM; at Gal-1 [2], 378 µM. With `C[C@@H](CC(=O)N[C@H]1CCCC[C@@H]1C(=O)N[C@H]1CCCC[C@@H]1C(=O)N[C@H](CC(=O)N[C@H]1CCCC[C@@H]1C(N)=O)[C@@H](C)O)NC(=O)[C@H]1CCCC[C@@H]1N` [H14 AT], the Kd at Gal-1 [2] stood at 443 µM; at S100A4 it was 356 µM; on Gal-1 [3], 416 µM. In the case of `NC(=O)CC[C@@H](CC(=O)N[C@H]1CCCC[C@@H]1C(N)=O)NC(=O)[C@H]1CCCC[C@@H]1NC(=O)[C@H]1CCCC[C@@H]1NC(=O)C[C@H](CC(=O)O)NC(=O)[C@H]1CCCC[C@@H]1N` [H14 DQ], at CaM [4], the Kd was determined as 212 µM. Turning to `NC(=O)[C@H]1CCCC[C@@H]1NC(=O)C[C@H](CC(=O)O)NC(=O)[C@H]1CCCC[C@@H]1NC(=O)[C@H]1CCCC[C@@H]1NC(=O)C[C@H](CCC(=O)O)NC(=O)[C@H]1CCCC[C@@H]1N` [H14 ED], at Gal-1 [3], the Kd came to 318 µM.

Consider `NC(=O)[C@H]1CCCC[C@@H]1NC(=O)C[C@H](CC(=O)O)NC(=O)[C@H]1CCCC[C@@H]1NC(=O)[C@H]1CCCC[C@@H]1NC(=O)C[C@H](CC(=O)O)NC(=O)[C@H]1CCCC[C@@H]1N` [H14 DD], for which the Kd on CaM [4] worked out at 447 µM.

With `N=C(N)NCCC[C@@H](CC(=O)N[C@H]1CCCC[C@@H]1C(=O)N[C@H]1CCCC[C@@H]1C(=O)N[C@@H](CCC(N)=O)CC(=O)N[C@H]1CCCC[C@@H]1C(N)=O)NC(=O)[C@H]1CCCC[C@@H]1N` [H14 RQ], the Kd on CaM [1] stood at 326 µM; on S100B, 116 µM; on Gal-1 [3], 421 µM. With `NC(=O)CC[C@@H](CC(=O)N[C@H]1CCCC[C@@H]1C(N)=O)NC(=O)[C@H]1CCCC[C@@H]1NC(=O)[C@H]1CCCC[C@@H]1NC(=O)C[C@H](CCC(=O)O)NC(=O)[C@H]1CCCC[C@@H]1N` [H14 EQ], the Kd on Gal-1 [3] came out at 443 µM. Same read-out and setting: to `NC(=O)[C@H]1CCCC[C@@H]1NC(=O)C[C@H](CCC(=O)O)NC(=O)[C@H]1CCCC[C@@H]1NC(=O)[C@H]1CCCC[C@@H]1NC(=O)C[C@H](CC(=O)O)NC(=O)[C@H]1CCCC[C@@H]1N` [H14 DE] belongs 318 µM. As to `C[C@@H](O)[C@@H](CC(=O)N[C@H]1CCCC[C@@H]1C(N)=O)NC(=O)[C@H]1CCCC[C@@H]1NC(=O)[C@H]1CCCC[C@@H]1NC(=O)C[C@H](CCCCN)NC(=O)[C@H]1CCCC[C@@H]1N` [H14 KT], the Kd was 242 µM at CaM [1], 194 µM at S100B and 370 µM at Gal-1 [3].

On to `C[C@@H](O)[C@@H](CC(=O)N[C@H]1CCCC[C@@H]1C(N)=O)NC(=O)[C@H]1CCCC[C@@H]1NC(=O)[C@H]1CCCC[C@@H]1NC(=O)C[C@H](CC(=O)O)NC(=O)[C@H]1CCCC[C@@H]1N` [H14 DT], for which the Kd at Gal-1 [3] was 282 µM. For the molecule `NC(=O)[C@H]1CCCC[C@@H]1NC(=O)C[C@H](CC(=O)O)NC(=O)[C@H]1CCCC[C@@H]1NC(=O)[C@H]1CCCC[C@@H]1NC(=O)C[C@H](Cc1ccc(O)cc1)NC(=O)[C@H]1CCCC[C@@H]1N` [H14 YD], the Kd was 119 µM at Gal-1 [2] and 177 µM at Gal-1 [3]. As for `NC(=O)[C@H]1CCCC[C@@H]1NC(=O)C[C@H](CO)NC(=O)[C@H]1CCCC[C@@H]1NC(=O)[C@H]1CCCC[C@@H]1NC(=O)C[C@H](CCC(=O)O)NC(=O)[C@H]1CCCC[C@@H]1N` [H14 ES], on Gal-1 [3], the Kd stood at 282 µM.

In the case of `NC(=O)C[C@@H](CC(=O)N[C@H]1CCCC[C@@H]1C(N)=O)NC(=O)[C@H]1CCCC[C@@H]1NC(=O)[C@H]1CCCC[C@@H]1NC(=O)C[C@H](CCC(=O)O)NC(=O)[C@H]1CCCC[C@@H]1N` [H14 EN], the Kd at Gal-1 [3] turned out to be 453 µM. Still for that read-out and setting: the result for `NC(=O)[C@H]1CCCC[C@@H]1NC(=O)C[C@H](CCC(=O)O)NC(=O)[C@H]1CCCC[C@@H]1NC(=O)[C@H]1CCCC[C@@H]1NC(=O)C[C@H](CCC(=O)O)NC(=O)[C@H]1CCCC[C@@H]1N` [H14 EE] reads 353 µM; that for `NC(=O)[C@H]1CCCC[C@@H]1NC(=O)C[C@H](CO)NC(=O)[C@H]1CCCC[C@@H]1NC(=O)[C@H]1CCCC[C@@H]1NC(=O)C[C@H](CC(=O)O)NC(=O)[C@H]1CCCC[C@@H]1N` [H14 DS], 415 µM.

These data come from publication PMC8162404, “Proteomimetic surface fragments distinguish targets by function” (Chemical Science, 2020).
